Experimental data reported in a compilation of properties of binary mixtures (doi:10.3390/app10238342).

Assay: xn = mol fraction of the nth substance listed
Conditions: 96.7 kPa

CS(C)=O + CC(=O)[O-].CCCCCCn1cc[n+](C)c1
x2 = 0
Conditions	viscosity [mPa·s]
303.15 K	1.81
308.15 K	1.66
313.15 K	1.52
318.15 K	1.4
323.15 K	1.3
328.15 K	1.2
338.15 K	1.04

CC(=O)[O-].CCCCCCn1cc[n+](C)c1 + CS(C)=O
viscosity [mPa·s]
Conditions	x1 = 0.057	x1 = 0.187	x1 = 0.257	x1 = 0.341	x1 = 0.446	x1 = 0.58	x1 = 0.757	x1 = 0.868	x1 = 1
303.15 K	2.7	4.6	9.2	18.7	41	74	250	420	800
308.15 K	2.46	–	–	15.8	32	60	182	290	530
313.15 K	–	3.7	6.9	13	27	–	133	212	370
318.15 K	2	3.2	5.9	10.8	–	41	–	156	260
323.15 K	1.86	2.9	5.2	9.3	17.9	35	78	115	190
328.15 K	1.72	2.6	4.7	8.1	14.7	29	60	88	145
333.15 K	1.58	2.31	4.2	–	–	25	47	68	110
338.15 K	1.47	–	3.6	6.4	10.9	21.3	–	55	88
